Test results from patent US20220380383A1, “NEUROPROTECTIVE PDI MODULATING SMALL MOLECULES AND METHODS OF USE THEREOF” (THE TRUSTEES OF COLUMBIA UNIVERSITY IN THE CITY OF NEW YORK, priority 2018, published 2022).
≈ marks a conversion by molar mass, not a printed value. Like-named read-outs stand apart in the source and are kept apart here.

How the values were obtained:
[1] = biological target: T1, human catalytic PDI A1 a domain (PDIa) (Homo sapiens, UniProt P07237); assay: Isothermal titration calorimetry (ITC) binding to PDIa; settings: for Kd: Tables 5-13, NA = not active, read-out: Kd; for ITC KD: N/A = not active
T1 construct: made in house; host or cells: Escherichia coli BL21-Gold (DE3)
T1 sequence (P07237 18-134): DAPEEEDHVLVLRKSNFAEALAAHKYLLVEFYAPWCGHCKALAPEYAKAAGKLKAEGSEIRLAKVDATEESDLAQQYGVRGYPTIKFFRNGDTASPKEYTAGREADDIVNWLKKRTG
Experimental: All ITC experiments were carried out at 25° C. on MicoCal Auto-ITC200 system (GE Healthcare). […] ITC titration experiments were carried out at 25° C. with 19 injections, 2 μl per injection, and 180 seconds between each injection. The reference cell power was set to 5 μcal/sec. A control experiment was performed for each compound, where each compound was titrated into buffer to account for heat released due to dilution. This background was subtracted from test data before a final dissociation constant was obtained. […] Gibbs free energy, ΔG, was calculated from equation ΔG=ΔH-TΔS. All other parameters, Ka, n, ΔH, ΔS, were determined directly from the titration data.
LOC14 analogs were designed and synthesized as described in the synthetic schemes. The analogs were evaluated for their binding to PDIa using isothermal titration calorimetry (ITC) (results of certain compounds are shown in FIGS. 1A-1E). Next, the analogs were tested for their ability to rescue PC12 cells from mHTT^Q103 induced cell death in a dose-dependent manner (results of certain compounds are shown in FIG. 2).

[2] = system: PC12 mHTTQ103 cells; assay: Rescue of PC12 cells from mHTTQ103-induced cell death; type: cell-based, rat; settings: for EC50: Rattus norvegicus, PC-12
[3] = Solubility (stock solvent)
[4] = Tables 5-13, PC12 cells, read-out: EC50
[5] = rescue from mHTTQ103 induced cell death
[6] = Tables 5-13, solvent not given (DMSO in Table 1)

C[C@H](c1ccccc1)n1sc2ccccc2c1=O [LC-29]
Kd [1]: 658 nM | EC50 [2, 4]: 669 nM | EC50 ([2]; rescue from mHTTQ103 induced cell death, read-out: PC12 cells EC50): 669 nM | Max Viability (%) ([2]; Tables 5-13, PC12 cells): 42% | PC12 cells Max % Viability [2, 5]: 42.02% | Solubility [3]: 100 mM in DMSO | Solubility [3, 6]: 100 mM (≈ 25.5 mg/mL)

O=C(Nc1cccc(F)c1)c1ccccc1S [LC-30]
ITC KD [1]: KD = N/A irreversible or not active | EC50 [2, 4]: 2990 nM | Max Viability (%) ([2]; Tables 5-13, PC12 cells): 62% | PC12 cells Max % Viability [2, 5]: 62.38% | Solubility [3]: 100 mM in DMSO | Solubility [3, 6]: 100 mM (≈ 24.7 mg/mL)

O=c1c2ccccc2sn1-c1cccc(F)c1 [LC-31]
ITC KD [1]: KD = N/A irreversible or not active | EC50 [2, 4]: 1760 nM | Max Viability (%) ([2]; Tables 5-13, PC12 cells): 36% | PC12 cells Max % Viability [2, 5]: 36.24% | Solubility [3]: 100 mM in DMSO | Solubility [3, 6]: 100 mM (≈ 24.5 mg/mL)

COCCn1sc2ccccc2c1=O [LC-32]
Kd [1]: 158 nM | EC50 [2, 4]: 700 nM | Max Viability (%) ([2]; Tables 5-13, PC12 cells): 42% | PC12 cells Max % Viability [2, 5]: 41.96% | Solubility [3]: 100 mM in DMSO | Solubility [3, 6]: 100 mM (≈ 20.9 mg/mL)

O=C(Nc1ccc(Oc2ccccc2)cc1)c1ccccc1S [LC-33]
ITC KD [1]: KD = N/A irreversible or not active | EC50 [2, 4]: 2940 nM | Max Viability (%) ([2]; Tables 5-13, PC12 cells): 54% | PC12 cells Max % Viability [2, 5]: 54.43% | Solubility [3]: 100 mM in DMSO | Solubility [3, 6]: 100 mM (≈ 32.1 mg/mL)

Cc1ccc(NC(=O)c2ccccc2S)c(Br)c1 [LC-34]
ITC KD [1]: KD = N/A irreversible or not active | EC50 [2, 4]: 3770 nM | Max Viability (%) ([2]; Tables 5-13, PC12 cells): 42% | PC12 cells Max % Viability [2, 5]: 41.95% | Solubility [3]: 100 mM in DMSO | Solubility [3, 6]: 100 mM (≈ 32.2 mg/mL)

Cn1sccc1=O [LC-35]
ITC KD [1]: KD = N/A irreversible or not acitve | Max Viability (%) ([2]; Tables 5-13, PC12 cells): 15% | PC12 cells EC50 [2, 5]: Not Active | PC12 cells Max % Viability [2, 5]: 14.63% | Solubility [3, 6]: 100 mM (≈ 11.5 mg/mL) | Solubility ([3]; in water): 100 mM in water

O=c1c2ccccc2sn1-c1ccc(Oc2ccccc2)cc1 [LC-37]
ITC KD [1]: KD = N/A irreversible or not active | EC50 [2, 4]: 1680 nM | Max Viability (%) ([2]; Tables 5-13, PC12 cells): 22% | PC12 cells Max % Viability [2, 5]: 21.77% | Solubility [3]: 100 mM in DMSO | Solubility [3, 6]: 100 mM (≈ 31.9 mg/mL)

O=c1[nH]sc2c(Cl)cccc12 [LC-38]
ITC KD [1]: KD = N/A irreversible or not active | Max Viability (%) ([2]; Tables 5-13, PC12 cells): 8% | PC12 cells EC50 [2, 5]: Not Active | PC12 cells Max % Viability [2, 5]: 7.63% | Solubility [3]: 100 mM in DMSO | Solubility [3, 6]: 100 mM (≈ 18.6 mg/mL)

O=C(C1CC1)N1CCN(Cn2sc3c(Cl)cccc3c2=O)CC1 [LC-39]
ITC KD [1]: KD = N/A irreversible or not active | Max Viability (%) ([2]; Tables 5-13, PC12 cells): 7% | PC12 cells EC50 [2, 5]: Not Active | PC12 cells Max % Viability [2, 5]: 7.02% | Solubility [3]: 100 mM in DMSO | Solubility [3, 6]: 100 mM (≈ 35.2 mg/mL)

O=c1[nH]sc2c(C(F)(F)F)cccc12 [LC-41]
ITC KD [1]: KD = N/A irreversible or not active | Max Viability (%) ([2]; Tables 5-13, PC12 cells): 9% | PC12 cells EC50 [2, 5]: Not Active | PC12 cells Max % Viability [2, 5]: 9.16% | Solubility [3]: 100 mM in DMSO | Solubility [3, 6]: 100 mM (≈ 21.9 mg/mL)

O=C(C1CC1)N1CCN(Cn2sc3c(C(F)(F)F)cccc3c2=O)CC1 [LC-42]
ITC KD [1]: KD = N/A irreversible or not active | Max Viability (%) ([2]; Tables 5-13, PC12 cells): 8% | PC12 cells EC50 [2, 5]: Not Active | PC12 cells Max % Viability [2, 5]: 8.17% | Solubility [3]: 100 mM in DMSO | Solubility [3, 6]: 100 mM (≈ 38.5 mg/mL)
